According to patent US20250122225A1, “MASP-2 INHIBITORS AND METHODS OF USE” (Omeros Corporation, priority 2023, published 2025):
Structures can show the parent of a compound that is named as a salt.

Tests used:
MASP-2 (CCP1-CCP2-SP) = target: T1, MASP-2 (CCP1-CCP2-SP) (Homo sapiens, UniProt O00187); experiment: Enzymatic assay for MASP-2 inhibitory activity (fluorogenic substrate); assay type: biochemical
T1 construct: 15 μL of Enzyme MASP-2 (CCP1-CCP2-SP) in Assay Buffer
In short: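 Fluorescence was normalized between no-enzyme and DMSO-only controls to derive % activity, with IC50 taken as equivalent to Ki except for tight-binding inhibitors. Reactions ran 20 min at room temperature in HEPES pH 7.4/NaCl/Tween 20 buffer, using the C2-derived fluorogenic substrate, before acetic acid stop.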

human α-thrombin = target: T2, human α-thrombin (Homo sapiens, UniProt P00734); experiment: Enzymatic assay for thrombin (fluorogenic peptide substrate Boc-VPR-AMC); assay type: biochemical
T2 construct: enzyme (human α-thrombin (BioPharm® Lab.)) in assay buffer; purchased BioPharm® Lab
In short: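 Assay conditions kept the reaction linear in time, enzyme and substrate, so IC50 approximated Ki apart from tight- or slow-binding cases. Boc-VPR-AMC cleavage by human α-thrombin proceeded 20 min at room temperature in Hepes pH 7.4/NaCl/Tween 20 buffer, then was acid-quenched and read by fluorescence.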

T1 sequence (O00187 445-686 limits assumed): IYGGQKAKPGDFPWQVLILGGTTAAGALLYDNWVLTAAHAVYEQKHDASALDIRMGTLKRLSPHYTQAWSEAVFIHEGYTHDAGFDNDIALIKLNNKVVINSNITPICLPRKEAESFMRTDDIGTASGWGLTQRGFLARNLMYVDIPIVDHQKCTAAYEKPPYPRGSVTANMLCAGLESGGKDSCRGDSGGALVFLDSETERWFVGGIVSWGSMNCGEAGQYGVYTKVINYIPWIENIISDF
T1 sequence (O00187 287-444 partner limits assumed): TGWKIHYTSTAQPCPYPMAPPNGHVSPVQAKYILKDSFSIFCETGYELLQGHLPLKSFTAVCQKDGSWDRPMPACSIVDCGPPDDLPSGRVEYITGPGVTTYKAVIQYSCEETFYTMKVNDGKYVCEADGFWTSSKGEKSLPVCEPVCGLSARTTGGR

SMILES | Ki (MASP-2 (CCP1-CCP2-SP)) [nM] | Ki (human α-thrombin) [nM]
CC(C)(O)c1cccc(CNc2ncc3n(c2=O)[C@H](C(=O)NCc2cc4cnccc4[nH]2)CC3)c1 [Compound 67, (S)-N-((1H-pyrrolo[3,2-c]pyridin-2-yl)methyl)-3-((3-(2-hydroxypropan-2-yl)benzyl)amino)-4-oxo-4,6,7,8-tetrahydropyrrolo[1,2-a]pyrazine-6-carboxamide] | < 500 | 500 to 2500
Cc1cc2[nH]c(CNC(=O)[C@@H]3CCc4cnc(NCc5cccc(C(C)(C)O)c5)c(=O)n43)cc2cn1 [Compound 68, (S)-3-((3-(2-hydroxypropan-2-yl)benzyl)amino)-N-((6-methyl-1H-pyrrolo[3,2-c]pyridin-2-yl)methyl)-4-oxo-4,6,7,8-tetrahydropyrrolo[1,2-a]pyrazine-6-carboxamide] | < 500 | > 25000
Cc1cc(F)cc(CNc2ncc3n(c2=O)[C@H](C(=O)NCc2cc4cnccc4[nH]2)CC3)c1 [Compound 70, (S)-N-((1H-pyrrolo[3,2-c]pyridin-2-yl)methyl)-3-((3-fluoro-5-methylbenzyl)amino)-4-oxo-4,6,7,8-tetrahydropyrrolo[1,2-a]pyrazine-6-carboxamide] | < 500 | 500 to 2500
Cc1cc(F)cc(CNc2ncc3n(c2=O)[C@H](C(=O)NCc2ccc(N)nc2)CC3)c1 [Compound 72, (S)-N-((6-aminopyridin-3-yl)methyl)-3-((3-fluoro-5-methylbenzyl)amino)-4-oxo-4,6,7,8-tetrahydropyrrolo[1,2-a]pyrazine-6-carboxamide] | < 500 | < 500
Cc1cccc([C@@H](C)Nc2ncc3n(c2=O)[C@H](C(=O)NCc2cc4cnccc4[nH]2)CC3)c1 [Compound 73, (S)-N-((1H-pyrrolo[3,2-c]pyridin-2-yl)methyl)-4-oxo-3-(((R)-1-(m-tolyl)ethyl)amino)-4,6,7,8-tetrahydropyrrolo[1,2-a]pyrazine-6-carboxamide] | < 500 | 10000 to 25000
Cc1cccc([C@H](C)Nc2ncc3n(c2=O)[C@H](C(=O)NCc2cc4cnccc4[nH]2)CC3)c1 [Compound 74, (S)-N-((1H-pyrrolo[3,2-c]pyridin-2-yl)methyl)-4-oxo-3-(((S)-1-(m-tolyl)ethyl)amino)-4,6,7,8-tetrahydropyrrolo[1,2-a]pyrazine-6-carboxamide] | < 500 | 500 to 2500
Cc1cc(C)cc([C@@H](CO)Nc2ncc3n(c2=O)[C@H](C(=O)NCc2ccc(N)nc2C)CC3)c1 [Compound 76, (S)-N-((6-amino-2-methylpyridin-3-yl)methyl)-3-(((S)-1-(3,5-dimethylphenyl)-2-hydroxyethyl)amino)-4-oxo-4,6,7,8-tetrahydropyrrolo[1,2-a]pyrazine-6-carboxamide] | < 500 | < 500
Cc1ccc(F)c(CNc2ncc3n(c2=O)[C@H](C(=O)NCc2ccc(N)nc2C)CC3)c1 [Compound 77, (S)-N-((6-amino-2-methylpyridin-3-yl)methyl)-3-((2-fluoro-5-methylbenzyl)amino)-4-oxo-4,6,7,8-tetrahydropyrrolo[1,2-a]pyrazine-6-carboxamide] | < 500 | < 500
Cc1ccc(F)c(CNc2ncc3n(c2=O)[C@H](C(=O)NCc2ccc(N)nc2)CC3)c1 [Compound 79, (S)-N-((6-aminopyridin-3-yl)methyl)-3-((2-fluoro-5-methylbenzyl)amino)-4-oxo-4,6,7,8-tetrahydropyrrolo[1,2-a]pyrazine-6-carboxamide] | < 500 | < 500
Cc1ccc(F)c(CNc2ncc3n(c2=O)[C@H](C(=O)NCc2cc4cnc(C)cc4[nH]2)CC3)c1 [Compound 80, (S)-3-((2-fluoro-5-methylbenzyl)amino)-N-((6-methyl-1H-pyrrolo[3,2-c]pyridin-2-yl)methyl)-4-oxo-4,6,7,8-tetrahydropyrrolo[1,2-a]pyrazine-6-carboxamide] | < 500 | 10000 to 25000
Cc1ccccc1[C@@H](C)Nc1ncc2n(c1=O)[C@H](C(=O)NCc1cc3cnccc3[nH]1)CC2 [Compound 81, (S)-N-((1H-pyrrolo[3,2-c]pyridin-2-yl)methyl)-4-oxo-3-(((R)-1-(0-tolyl)ethyl)amino)-4,6,7,8-tetrahydropyrrolo[1,2-a]pyrazine-6-carboxamide] | < 500 | < 500
Cc1ccccc1[C@@H](C)Nc1ncc2n(c1=O)[C@H](C(=O)NCc1ccc(N)nc1C)CC2 [Compound 82, (S)-N-((6-amino-2-methylpyridin-3-yl)methyl)-4-oxo-3-(((R)-1-(o-tolyl)ethyl)amino)-4,6,7,8-tetrahydropyrrolo[1,2-a]pyrazine-6-carboxamide] | < 500 | < 500
Cc1ccccc1[C@H](C)Nc1ncc2n(c1=O)[C@H](C(=O)NCc1cc3cnccc3[nH]1)CC2 [Compound 83, (S)-N-((1H-pyrrolo[3,2-c]pyridin-2-yl)methyl)-4-oxo-3-(((S)-1-(o-tolyl)ethyl)amino)-4,6,7,8-tetrahydropyrrolo[1,2-a]pyrazine-6-carboxamide] | < 500 | 2500 to 10000
O=C(NCc1cc2cnccc2[nH]1)[C@@H]1CCc2cnc(N3CC(c4ccccc4)C3)c(=O)n21 [Compound 84, (S)-N-((1H-pyrrolo[3,2-c]pyridin-2-yl)methyl)-4-oxo-3-(3-phenylazetidin-1-yl)-4,6,7,8-tetrahydropyrrolo[1,2-a]pyrazine-6-carboxamide] | 500 to 2500 | 10000 to 25000
Cc1cc(C)cc(CNc2ncc3n(c2=O)[C@H](C(=O)NCc2ccncc2)CC3)c1 [Compound 86, (S)-3-((3,5-dimethylbenzyl)amino)-4-oxo-N-(pyridin-4-ylmethyl)-4,6,7,8-tetrahydropyrrolo[1,2-a]pyrazine-6-carboxamide] | 500 to 2500 | > 25000
Cc1cc(C)cc(CNc2ncc3n(c2=O)[C@H](C(=O)NCc2ccc(N)nc2)CC3)c1 [Compound 87, (S)-N-((6-aminopyridin-3-yl)methyl)-3-((3,5-dimethylbenzyl)amino)-4-oxo-4,6,7,8-tetrahydropyrrolo[1,2-a]pyrazine-6-carboxamide] | < 500 | < 500
Cc1cc(C)cc(CNc2nc(Cl)c3n(c2=O)[C@H](C(=O)NCc2cccnc2C)CC3)c1 [Compound 89, trifluoroacetate] | 2500 to 10000 | > 25000
Cc1cccc([C@@H](C)Nc2ncc3n(c2=O)[C@H](C(=O)NCc2cc4c(s2)CNC4)CC3)c1 [Compound 90, (S)—N-((5,6-dihydro-4H-thieno[2,3-c]pyrrol-2-yl)methyl)-4-oxo-3-(((R)-1-(m-tolyl)ethyl)amino)-4,6,7,8-tetrahydropyrrolo[1,2-a]pyrazine-6-carboxamide] | < 500 | 2500 to 10000
COc1cc(C)cc(CNc2ncc3n(c2=O)[C@H](C(=O)NCc2cc4c(s2)CNC4)CC3)c1 [Compound 91, (S)-N-((5,6-dihydro-4H-thieno[2,3-c]pyrrol-2-yl)methyl)-3-((3-methoxy-5-methylbenzyl)amino)-4-oxo-4,6,7,8-tetrahydropyrrolo[1,2-a]pyrazine-6-carboxamide] | < 500 | < 500
Cc1cc(C)cc([C@@H](CO)Nc2ncc3n(c2=O)[C@H](C(=O)NCc2cc4c(s2)CNC4)CC3)c1 [Compound 92, (S)-N-((5,6-dihydro-4H-thieno[2,3-c]pyrrol-2-yl)methyl)-3-(((S)-1-(3,5-dimethylphenyl)-2-hydroxyethyl)amino)-4-oxo-4,6,7,8-tetrahydropyrrolo[1,2-a]pyrazine-6-carboxamide] | < 500 | < 500
Cc1ccccc1[C@@H](C)Nc1ncc2n(c1=O)[C@H](C(=O)NCc1cc3c(s1)CNC3)CC2 [Compound 93, (S)-N-((5,6-dihydro-4H-thieno[2,3-c]pyrrol-2-yl)methyl)-4-oxo-3-(((R)-1-(o-tolyl)ethyl)amino)-4,6,7,8-tetrahydropyrrolo[1,2-a]pyrazine-6-carboxamide] | < 500 | < 500
Cc1ccccc1[C@H](C)Nc1ncc2n(c1=O)[C@H](C(=O)NCc1cc3c(s1)CNC3)CC2 [Compound 94, (S)-N-((5,6-dihydro-4H-thieno[2,3-c]pyrrol-2-yl)methyl)-4-oxo-3-(((S)-1-(o-tolyl)ethyl)amino)-4,6,7,8-tetrahydropyrrolo[1,2-a]pyrazine-6-carboxamide] | < 500 | 500 to 2500
Cc1cccc([C@H](C)Nc2ncc3n(c2=O)[C@H](C(=O)NCc2cc4c(s2)CNC4)CC3)c1 [Compound 95, (S)-N-((5,6-dihydro-4H-thieno[2,3-c]pyrrol-2-yl)methyl)-4-oxo-3-(((S)-1-(m-tolyl)ethyl)amino)-4,6,7,8-tetrahydropyrrolo[1,2-a]pyrazine-6-carboxamide] | < 500 | 500 to 2500
Cc1cc(C)cc(CNc2ncc3n(c2=O)[C@H](C(=O)NCc2cc4c(s2)CNC4)CC3)c1 [Compound 96, (S)-N-((5,6-dihydro-4H-thieno[2,3-c]pyrrol-2-yl)methyl)-3-((3,5-dimethylbenzyl)amino)-4-oxo-4,6,7,8-tetrahydropyrrolo[1,2-a]pyrazine-6-carboxamide] | < 500 | < 500
Cc1cc(C)cc(CNc2ncc3n(c2=O)[C@H](C(=O)NCc2cc4cnccc4[nH]2)CC3)c1 [Compound 97, (S)—N-((1H-pyrrolo[3,2-c]pyridin-2-yl)methyl)-3-((3,5-dimethylbenzyl)amino)-4-oxo-4,6,7,8-tetrahydropyrrolo[1,2-a]pyrazine-6-carboxamide trifluoroacetate] | < 500 | 500 to 2500
